The text below walks through data of ChEMBL document CHEMBL4840360, “Design, Synthesis, and Pharmacological Evaluation of Biaryl-Containing PD-1/PD-L1 Interaction Inhibitors Bearing a Unique Difluoromethyleneoxy Linkage” (J Med Chem, 2021).

Activity calls are given as the source filed them. The calls are words filed in the database; no cut-off is given here. Where only a bound is given, the exact number is not on record here.

The term IC50 denotes the concentration at which inhibition is half-maximal. By microsomal CLint is commonly meant the rate of metabolic loss divided by the concentration. By half-life is commonly meant how long it takes for the measured level to halve. One may read the AUC(0-t) as exposure summed from dosing to a finite time, without extrapolation to infinity. Read a high AUC(0-t) as more exposure. A word on the clearance: it is the volume of plasma or blood freed of the substance per unit of time. Low readings indicate a low capacity for elimination, high ones a high capacity for elimination. In general, Tmax refers to the time from dosing to the highest level. A word on the Cmax: it is the highest concentration seen after dosing.

Data set [1] concerns the target T1, Programmed cell death protein 1/Programmed cell death 1 ligand 1 (Homo sapiens, UniProt Q15116+Q9NZQ7). The experiment in a line: Inhibition of PD-1/PD-L1 interaction (unknown origin) by HTRF assay. Format: protein-complex assay. (In TR-FRET formats the signal depends on donor and acceptor labels being close together.)
For data set [2], the system named is Hepa1-6. As to the kind of experiment: Antitumor activity against […] Hepa1-6 cells xenografted in C57BL/6 […] mouse model assessed as tumor growth inhibition at 1 mg/kg, IM administered every other day and measured three times per week. Format: functional, organism-based. Background: Xenograft models place foreign cells or tissue in a host animal.
A short description of data set [3]: Antitumor activity against […] Hepa1-6 cells xenografted in C57BL/6 mouse syngeneic model assessed as tumor growth inhibition at 1 mg/kg, IM administered every other day and measured three times per week. Format: functional. The settings on record: Hepa1-6, im, read-out: TGI.
Data set [4] can be described thus: Microsomal stability in mouse assessed as clearance. Format: ADME. The settings on record: microsomes.
Data set [5] addresses T1, Programmed cell death protein 1/Programmed cell death 1 ligand 1. As to the kind of experiment: Inhibition of PD-1/PD-L1 interaction in human PBMCs cocultured with H1299 cells assessed as increase in INFgamma expression at 0.1 uM incubated for 72 hrs in presence of alphaCD3/alphaCD28 by ELISA. The settings on record: PBMC. Format: cell-based. For orientation: In an ELISA, binding on a coated surface is turned into a signal by an enzyme label.

Data set [6] can be described thus: Half life in rat at 1 mg/kg, iv. Format: ADME, organism-based. The settings on record: in vivo.
Data set [7] is described as follows: AUClast in rat at 1 mg/kg, iv. Format: ADME, organism-based. More on the design: time 0 - last, route intravenous, dose 1 mg/kg. The settings on record: in vivo.
The nature of data set [8]: Observed clearance in rat at 1 mg/kg, iv. Format: ADME, organism-based. The settings on record: in vivo.
Data set [9] is described as follows: Observed volume of distribution at steady state in rat at 1 mg/kg, iv. Format: ADME, organism-based. The settings on record: in vivo, read-out: Vdss.
Data set [10] can be described thus: Microsomal stability in mouse assessed as half life. Format: ADME. The settings on record: microsomes.
Data set [11] has as its system Hepa1-6. As to the kind of experiment: Antitumor activity against […] Hepa1-6 cells xenografted in C57BL/6 mouse model assessed as increase in infiltration of IFNgamma+ CD8+ T-cells in tumor by flow cytometry analysis. Format: functional, cell-based.
Data set [12] has as its system Hepa1-6. As to the kind of experiment: Antitumor activity against […] Hepa1-6 cells xenografted in C57BL/6 mouse model assessed as increase in infiltration of GrzB+ CD8+ T-cells in tumor by flow cytometry analysis. Format: functional, cell-based.
The subject of data set [13] is Hepa1-6. The experiment in a line: Antitumor activity against […] Hepa1-6 cells xenografted in C57BL/6 mouse model assessed as increase in infiltration of IFNgamma+ GrzB+ CD8+ T-cells in tumor by flow cytometry analysis. Format: functional, cell-based.
Data set [14] addresses T1, Programmed cell death protein 1/Programmed cell death 1 ligand 1. As to the kind of experiment: Inhibition of PD-1/PD-L1 interaction in human Jurkat T cells expressing PD-1 cocultured with CHO cells expressing PD-Ll/TCR assessed as activation of Jurkat cells by luciferase reporter gene assay. Format: cell-based.
Data set [15] addresses T2, Programmed cell death protein 1/Programmed cell death 1 ligand 1 (Mus musculus) (UniProt Q9EP73+Q02242). The experiment in a line: Inhibition of PD1/PDL1 protein-protein interaction in mouse CD8-positive T cells cocultured with Hepa1-6 cells assessed as increase in CD107a expression in CD8+ T cells incubated for 5 hrs in presence of alphaCD3/alphaCD28 and IL-2 stimulation by flow cytometry analysis. Format: cell-based. The settings on record: dose 0.75-3 µM.

In data set [16] the target is T2, Programmed cell death protein 1/Programmed cell death 1 ligand 1 (Mus musculus). The experiment in a line: Inhibition of PD1/PDL1 protein-protein interaction in mouse CD8-positive T cells cocultured with Hepa1-6 cells assessed as increase in ratio of IFNgamma+ CD8+ T cells at 0.75 to 3 uM incubated for 48 hrs in presence of alphaCD3/alphaCD28 and IL-2 stimulation by flow cytometry analysis. Format: cell-based. The settings on record: dose 0.75-3 µM.

Data set [17] shares this target. As to the kind of experiment: Inhibition of PD1/PDL1 protein-protein interaction in mouse CD8-positive T cells cocultured with Hepa1-6 cells assessed as increase in ratio of GrzB+ CD8+ T cells at 0.75 to 3 uM incubated for 48 hrs in presence of alphaCD3/alphaCD28 and IL-2 stimulation by flow cytometry analysis. The settings on record: dose 0.75-3 µM. Format: cell-based.

The target is the same in data set [18]. The experiment in a line: Inhibition of PD1/PDL1 protein-protein interaction in mouse CD8-positive T cells cocultured with Hepa1-6 cells assessed as increase in ratio of IFNgamma+ GrzB+ CD8+ T cells at 0.75 to 3 uM incubated for 48 hrs in presence of alphaCD3/alphaCD28 and IL-2 stimulation by flow cytometry analysis. Format: cell-based. The settings on record: dose 0.75-3 µM.

The target is the same in data set [19]. As to the kind of experiment: Inhibition of PD1/PDL1 protein-protein interaction in mouse CD8-positive T cells cocultured with Hepa1-6 cells assessed as increase in IFNgamma secretion incubated for 48 hrs in presence of alphaCD3/alphaCD28 and IL-2 stimulation by ELISA. Format: cell-based. The settings on record: dose 0.75-3 µM.
Data set [20] in a line: Tmax in rat at 3 mg/kg, po. Format: ADME, organism-based. The settings on record: in vivo.
Data set [21] in a line: Cmax in rat at 3 mg/kg, po. Format: ADME, organism-based. The arrangement: route oral, dose 3 mg/kg. The settings on record: in vivo.
The nature of data set [22]: AUClast in rat at 3 mg/kg, po. Format: ADME, organism-based. The settings on record: in vivo. The arrangement: time 0 - last, route oral, dose 3 mg/kg.

T1 sequence (Q15116 whole entry): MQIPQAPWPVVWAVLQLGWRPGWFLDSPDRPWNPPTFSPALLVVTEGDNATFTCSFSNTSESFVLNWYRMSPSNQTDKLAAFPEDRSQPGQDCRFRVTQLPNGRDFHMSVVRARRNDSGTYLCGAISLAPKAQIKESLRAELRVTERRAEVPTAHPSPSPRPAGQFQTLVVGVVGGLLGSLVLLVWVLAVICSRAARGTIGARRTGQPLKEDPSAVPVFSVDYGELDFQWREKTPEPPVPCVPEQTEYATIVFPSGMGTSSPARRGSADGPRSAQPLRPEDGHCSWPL
T1 sequence (Q9NZQ7 whole entry): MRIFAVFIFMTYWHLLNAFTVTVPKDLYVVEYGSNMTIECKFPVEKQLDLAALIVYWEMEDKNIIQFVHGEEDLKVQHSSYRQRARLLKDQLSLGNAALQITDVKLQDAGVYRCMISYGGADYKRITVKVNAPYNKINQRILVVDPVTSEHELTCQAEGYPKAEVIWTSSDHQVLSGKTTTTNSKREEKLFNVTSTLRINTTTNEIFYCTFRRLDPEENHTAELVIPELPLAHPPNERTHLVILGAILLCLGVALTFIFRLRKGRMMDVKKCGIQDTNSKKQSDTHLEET

As for `Cc1c(-c2ccc3c(c2)OCCO3)cccc1C(F)(F)Oc1cc(OCc2ccnc(C#N)c2)c(CN2CCCC[C@H]2C(=O)N[C@@H]2C(O)O[C@H](CO)[C@@H](O)[C@@H]2O)cc1Cl` (some centres not stated), the IC50 in data set [1] is 28.8 nM.

In turn, `Cc1cc(OC(F)(F)c2cccc(-c3ccc4c(c3)OCCO4)c2C)cc(OCc2cccc(C#N)c2)c1CN[C@@H](C(=O)O)[C@H](C)O` returned an IC50 in [1] of 54.7 nM.

In turn, `CON(C)C(=O)[C@@H]1CCCCN1Cc1cc(Cl)c(OC(F)(F)c2cccc(-c3ccc4c(c3)OCCO4)c2C)cc1OCc1ccnc(C#N)c1` came in with an IC50 in data set [1] of over 1000 nM.

`Cc1c(-c2ccc3c(c2)OCCO3)cccc1C(F)(F)Oc1cc(OCc2ccnc(C#N)c2)c(CNC(CO)(CO)CO)cc1Cl` registered a half-maximal inhibitory concentration (IC50) in data set [1] of 6.32 nM.

On to `Cc1cc(OC(F)(F)c2cccc(-c3ccc4c(c3)OCCO4)c2C)cc(OCc2cccc(C#N)c2)c1CNC(C)(CO)CO`, for which the IC50 in [1] worked out at 16.3 nM.

`Cc1c(-c2ccc3c(c2)OCCO3)cccc1C(F)(F)Oc1cc(OCc2ccnc(C#N)c2)c(CN[C@@H]2C(O)O[C@H](CO)[C@@H](O)[C@@H]2O)cc1Cl` (some centres not stated): the result in the data set with Hepa1-6 [2], with Hepa1-6 [11], with Hepa1-6 [12] and in the data set on Hepa1-6 [13] was Active. In addition, the inhibition in vivo at 1 mg/kg in [3] is 53.1%. Besides, in data set [4], the microsomal CLint was 46.1 µL/min/mg. Further, the IC50 worked out at 10.2 nM in data set [1] and 3160 nM in data set [14]. The inhibition result in [5], in data set [16], in [17] and in data set [18] was “Active” each time. Besides, the half-life in data set [6] was 4.84 h; in data set [10], 1.25 h. In data set [7], the AUC(0-t) worked out at 464 ng·h/mL. In data set [8], the clearance is 40 mL/min/kg. In [9], the Vd was found to be 3.92 L/kg. In addition, the inhibition entry in data set [15] and in data set [19] was “Dose-Dependent Effect” in each case.

In [1], `Cc1c(-c2ccc3c(c2)OCCO3)cccc1C(F)(F)Oc1cc(OCc2ccnc(C#N)c2)c(CN[C@@H](CO)[C@@H](O)[C@@H](O)[C@H](O)CO)cc1Cl` yielded an IC50 of 7.1 nM. Moreover, in [5], the inhibition entry is “Active”. The half-life in data set [6] is 3.14 h. The same molecule gave an exposure AUC(0-t) in data set [7] of 141 ng·h/mL. In [8], this molecule displayed a clearance of 131 mL/min/kg. The Vd in data set [9] amounted to 18 L/kg.

Molecule `Cc1c(-c2ccc3c(c2)OCCO3)cccc1C(F)(F)Oc1cc(OCc2ccnc(C#N)c2)c(CN2CCCC[C@H]2C(=O)O)cc1Cl` yielded an IC50 in data set [1] of 2.99 nM. Moreover, the inhibition result in data set [5] was “Active”. Also, the time of peak concentration (Tmax) in data set [20] was determined as 2.83 h. In addition, the Cmax in [21] came out at 0.698 ng/mL. For the same molecule, the AUC(0-t) is 0.701 ng·h/mL in [22] and 117 ng·h/mL in [7]. In data set [6], this molecule gave a half-life of 0.71 h. Moreover, in data set [8], the clearance came to 143 mL/min/kg. The Vd in data set [9] came out at 5.31 L/kg.

As for `CC(=O)OCOC(=O)[C@@H]1CCCCN1Cc1cc(Cl)c(OC(F)(F)c2cccc(-c3ccc4c(c3)OCCO4)c2C)cc1OCc1ccnc(C#N)c1`, in data set [1], inhibition was half-maximal at 28.8 nM (IC50).

In data set [1], `Cc1c(-c2ccc3c(c2)OCCO3)cccc1C(F)(F)Oc1cc(OCc2ccnc(C#N)c2)c(CN2CCCC[C@H]2C(=O)OCC(F)(F)F)cc1Cl` showed an IC50 of over 1000 nM.

In the case of `Cc1c(-c2ccc3c(c2)OCCO3)cccc1C(F)(F)Oc1cc(OCc2cncc(C#N)c2)c(CNC(CO)(CO)CO)cc1Cl`, in data set [1], the midpoint of inhibition, the IC50, lay at 5.68 nM. For the same molecule, in data set [5], the inhibition result is “Active”. The Tmax in [20] was 0.33 h. Further, the Cmax in data set [21] amounted to 4.82 ng/mL. The results for the area under the curve AUC(0-t) in data set [22] and in [7] were 2.83 ng·h/mL and 188 ng·h/mL, respectively. In data set [6], this molecule showed a half-life of 1.32 h. The same molecule gave a clearance in data set [8] of 89 mL/min/kg. In addition, the Vd in [9] was found to be 4.18 L/kg.

`Cc1c(-c2ccc3c(c2)OCCO3)cccc1C(F)(F)Oc1cc(OCc2cccc(C#N)c2)c(CNC(C)(CO)CO)cc1Cl` showed an IC50 in data set [1] of 5.93 nM.

Consider `CC(=O)OCCOC(=O)[C@@H]1CCCCN1Cc1cc(Cl)c(OC(F)(F)c2cccc(-c3ccc4c(c3)OCCO4)c2C)cc1OCc1ccnc(C#N)c1`, for which the IC50 in data set [1] is over 1000 nM.

`Cc1c(-c2ccc3c(c2)OCCO3)cccc1C(F)(F)Oc1cc(OCc2cccc3nonc23)c(CNC(CO)(CO)CO)cc1Cl` yielded a half-inhibitory concentration (IC50) in data set [1] of 7.05 nM.

Take `Cc1cc(OC(F)(F)c2cccc(-c3ccc4c(c3)OCCO4)c2C)cc(OCc2cccc(C#N)c2)c1CN[C@H](CO)C(=O)O`: in data set [1], 31.9 nM corresponded to half-maximal inhibition (IC50).

Consider `Cc1cc(OC(F)(F)c2cccc(-c3ccc4c(c3)OCCO4)c2C)cc(OCc2cccc(C#N)c2)c1CNC(CO)(CO)CO`, for which the midpoint of inhibition in data set [1], the IC50, lay at 30.5 nM.

On to `Cc1cc(OCc2cccc(-c3ccc4c(c3)OCCO4)c2C)cc(OCc2cccc(C#N)c2)c1CN[C@H](CO)C(=O)O`, for which, in [4], the microsomal CLint is 52.5 µL/min/mg. The molecule further had a half-maximal inhibitory concentration (IC50) in [1] of 48.2 nM. In addition, the half-life in data set [6] is 0.47 h; in data set [10], 1.1 h. Further, the area under the curve AUC(0-t) in data set [7] stood at 142 ng·h/mL. The clearance in [8] amounted to 124 mL/min/kg. Besides, in data set [9], the Vd was found to be 1.33 L/kg.
